Patent US11491224B2, “Bladder cancer photodynamic therapeutic agents with off-on magnetic resonance imaging enhancement” (Hong Kong Baptist University, priority 2018, dated 2022)
Like-named read-outs stand apart in the source and are kept apart here.

How the values were obtained:
[1] = T1 and T2 relaxivity measurements; type: physicochemical
Procedure: t1 relaxivity of the proposed MR-available PDT agent—NLPor-Gd-L1Rn (n=1 to 3) was measured. […] Without wishing to be bound by theory, this difference in relaxivity could be due to the different coordinative numbers of them: for NLPor-Gd-L1Rn, (n=1 to 3) the coordinative protection for the central Gd^3+ ion is better than that of Gd-DOTA, so the Gd^3+ ion in NLPor-Gd-L1Rn (n=1 to 3) has less chance to exchange with water protons compared to Gd-DOTA. The responsive t1 of NLPor-Gd-L1Rn (n=1-3) have been evaluated with the addition of different concentrations of αvβ3 integrin. […] (FIG. 6). When the αvβ3 integrin (targeting) binding might readily interact with two molecules and affect t1 relaxivity from 2nd or outer coordination spheres. The t1 relaxivity of NLPor-Gd-L1R3 is enhanced from 0.2847 mM^−1s^−1 to 3.225 mM^−1s^−1 with the addition of αvβ3 integrin.
t1 relaxivity of the proposed MR-available PDT agent—M-NLPor-Cyc-L2An (n=1 or 2) was measured. […]
The absorption and emission spectra of Zn-NLPorB2-Cyc-Gd-L2A2 and its precursor without Gd, Zn-NLPorB2-Cyc-L2A2 were measured in aqueous solution (FIGS. 54b and 54c). […] The singlet oxygen quantum yields (ΦΔ) of Zn-NLPorB2-Cyc-Gd-L2A2 and Zn-NLPorB2-Cyc-L2A2 were measured in CHCl3 and calculated by comparing to a reference compound tetraphenylporphyrin, H2TPP, (ΦΔ=0.55 in CHCl3). […]

[2] = system: T24 bladder cancer xenografts; conditions: 100 μmol/kg (0.1 mmol/kg gadolinium), tail vein injection
Procedure: MRI signal enhancement was assessed by performing in vivo MRI measurements in three BALB/c nude mice bearing T24 bladder cancer xenografts. Three tumor models were developed by subcutaneous injection of T24 bladder cancer cells. […] MR images were acquired before and after tail vein injection of 200 μl of each sample at various time points.
MR images were acquired before and after 200 μL tail vein injection of each subject at various times.

[3] = in PBS buffer, reference value; cited from earlier work

## O=C([O-])CN1CCN(CC(=O)[O-])CCN(CC(=O)O)CCN(CC(=O)[O-])CC1.[Gd+3] [Gd-DOTA, reference compound]
[1]; 1.4T in water with 3% DMSO, 37° C.
  T1 relaxivity: 2.92 mM⁻¹ s⁻¹
[1]; 1.5 T in water (3% DMSO)
  T1 relaxivity (r1): 2.92 mM⁻¹ s⁻¹
[2]
  post-injection MRI signal enhancement: weak post-injection signal enhancement
[2]; listed as GdDOTA
  post-injection MRI signal enhancement: Weak post injection signal enhancement

## O=C1OC2(c3cc(I)c(O)c(I)c3Oc3c2cc(I)c(O)c3I)c2c(Cl)c(Cl)c(Cl)c(Cl)c21 [RB, Rose Bengal]
[3]
  singlet oxygen quantum yield of reference (ΦRB): 0.75
